Test results published in US20240108734A1, “METHODS FOR TREATING AND AMELIORATING CANCER” (The Regents of the University of California, priority 2021, published 2024).
Entries after “also recorded” stand apart in the source; their conditions may differ.

Tests used:
ADAR1 = assay: qRT-PCR gene expression in BC CML CD34+ cells in stromal co-culture; format: cell-based, human; conditions: imetelstat monotherapy 5 μM for 14 days vs mismatch control
Experimental: (§1) FIG. 7 illustrates supplementary FIG. 2, where gene expression qRT-PCR analyses of human CD34^+ cells sorted from BC CML patient samples (n=3) and MF patient samples (n=5) that were co-cultured with SL/M2 stromal cells and treated with mismatch control or imetelstat at 5 μM for 14 days.

beta-catenin [1] = assay: as above; format: cell-based, human; conditions: imetelstat monotherapy 5 μM for 14 days vs mismatch control
Experimental: as §1

telomere length = assay: FlowFish telomere length assay in LSC mouse models; format: in vivo, human; conditions: imetelstat compared with mismatch control; p<0.05, t test, ANOVA
Experimental: (§2) Telomere length was determined using the Telomere PNA Kit/FITC for Flow Cytometry (Dako, Cat #K5327) with a MACSQuant10 and analyzed with FlowJo software. The Relative Telomere Length (RTL) was calculated by dividing the mean fluorescence intensity (MFI) of the test sample G0/G1 population by the MFI of the normal peripheral blood reference G0/G1 population using the Cycletest™ Plus DNA Kit (BD, Cat #340242). Telomerase activity was determined using the TRAPeze Kit RT Telomerase Detection Kit (Millipore, Catalog No. S7710).
Samples were selected from engrafted mouse bone marrow or spleen with human CD45+ immunomagnetic beads (Miltenyi). Telomere length was determined by using the Telomere PNA Kit/FITC for Flow Cytometry (Dako, Cat #K5327). Samples were run on the MACSQuant10 and analyzed with FlowJo software. The Relative Telomere Length (RTL) was calculated. The 1301 cell line was utilized as control cells. The DNA index was determined with the (BD Cycletest™ Plus DNA Kit, Cat #340242). The DNA index was obtained by dividing the MFI of the test sample G0/G1 population by the WI of the normal reference G0/G1 population. Human peripheral blood mononuclear cells were used as “the normal reference G0/G1 population” for calculating the DNA index. Telomerase activity was determined by using TRAPeze Kit RT Telomerase Detection Kit (Millipore, Catalog No. S7710). […]

telomerase = molecular target: T1, telomerase (Homo sapiens, UniProt O14746); assay: TRAP telomerase activity assay in BC CML engrafted human CD45+ cells; format: in vivo; conditions: imetelstat compared with vehicle, p<0.0002
T1 construct: Cell lysates from 5×10^5 CD34^+ selected cells from BC CML engrafted mice or K562 cells were prepared; endogenous in cells; host or cells: human CD45+ / CD34+ cells selected from bone marrow or spleen of BC CML engrafted mice
T1 sequence (O14746 whole entry): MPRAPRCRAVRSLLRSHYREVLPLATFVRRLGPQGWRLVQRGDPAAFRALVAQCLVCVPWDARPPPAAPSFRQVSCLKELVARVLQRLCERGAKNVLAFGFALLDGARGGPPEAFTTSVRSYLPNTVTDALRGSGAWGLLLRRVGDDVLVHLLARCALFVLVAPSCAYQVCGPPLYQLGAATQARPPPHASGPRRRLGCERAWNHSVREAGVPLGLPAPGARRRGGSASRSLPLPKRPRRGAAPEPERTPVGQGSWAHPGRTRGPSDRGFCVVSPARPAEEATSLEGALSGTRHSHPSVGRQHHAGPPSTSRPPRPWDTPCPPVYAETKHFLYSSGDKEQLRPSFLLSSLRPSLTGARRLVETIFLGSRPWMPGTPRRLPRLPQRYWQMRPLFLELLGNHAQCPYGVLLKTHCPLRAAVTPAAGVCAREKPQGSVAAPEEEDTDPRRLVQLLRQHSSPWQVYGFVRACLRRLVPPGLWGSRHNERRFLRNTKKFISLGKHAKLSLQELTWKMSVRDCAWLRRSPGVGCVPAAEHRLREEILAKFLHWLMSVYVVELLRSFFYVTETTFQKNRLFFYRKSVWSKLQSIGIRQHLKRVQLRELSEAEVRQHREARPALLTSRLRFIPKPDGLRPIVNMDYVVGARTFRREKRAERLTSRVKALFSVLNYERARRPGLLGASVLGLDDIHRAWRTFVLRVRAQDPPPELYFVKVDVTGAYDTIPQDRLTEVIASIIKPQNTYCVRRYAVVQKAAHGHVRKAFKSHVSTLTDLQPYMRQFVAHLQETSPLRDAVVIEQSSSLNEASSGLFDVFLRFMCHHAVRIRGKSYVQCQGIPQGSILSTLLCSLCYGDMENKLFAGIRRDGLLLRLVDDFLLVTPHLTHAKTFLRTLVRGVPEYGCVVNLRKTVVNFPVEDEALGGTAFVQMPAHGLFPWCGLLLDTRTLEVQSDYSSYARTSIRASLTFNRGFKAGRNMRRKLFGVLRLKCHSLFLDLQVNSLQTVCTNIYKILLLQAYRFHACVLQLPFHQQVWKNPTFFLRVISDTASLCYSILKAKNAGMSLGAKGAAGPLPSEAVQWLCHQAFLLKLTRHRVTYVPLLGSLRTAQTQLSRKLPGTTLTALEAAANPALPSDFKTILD
T1 sequence (O60832 whole entry partner): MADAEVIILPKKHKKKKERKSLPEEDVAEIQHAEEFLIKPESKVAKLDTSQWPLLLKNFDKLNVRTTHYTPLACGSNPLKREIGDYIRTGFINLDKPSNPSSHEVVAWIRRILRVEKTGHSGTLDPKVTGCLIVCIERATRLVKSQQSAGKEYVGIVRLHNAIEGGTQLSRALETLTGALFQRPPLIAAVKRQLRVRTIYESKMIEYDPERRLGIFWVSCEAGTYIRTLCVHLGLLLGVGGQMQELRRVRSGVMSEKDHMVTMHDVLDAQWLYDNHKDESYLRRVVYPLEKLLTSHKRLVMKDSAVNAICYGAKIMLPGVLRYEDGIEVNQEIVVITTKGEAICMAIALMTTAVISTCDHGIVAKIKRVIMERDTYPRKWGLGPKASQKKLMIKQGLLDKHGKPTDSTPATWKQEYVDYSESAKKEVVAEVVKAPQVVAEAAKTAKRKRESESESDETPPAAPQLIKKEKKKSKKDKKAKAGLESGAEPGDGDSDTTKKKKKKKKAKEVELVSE
T1 sequence (Q9NX24 whole entry partner): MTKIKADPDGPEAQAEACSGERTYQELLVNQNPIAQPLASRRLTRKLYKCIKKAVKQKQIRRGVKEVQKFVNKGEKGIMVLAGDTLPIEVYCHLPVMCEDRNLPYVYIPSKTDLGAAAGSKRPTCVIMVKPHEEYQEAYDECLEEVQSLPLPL
T1 sequence (Q9NPE3 whole entry partner): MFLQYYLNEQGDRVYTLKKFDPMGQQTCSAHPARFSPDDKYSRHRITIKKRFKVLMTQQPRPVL
T1 sequence (Q9NY12 whole entry partner): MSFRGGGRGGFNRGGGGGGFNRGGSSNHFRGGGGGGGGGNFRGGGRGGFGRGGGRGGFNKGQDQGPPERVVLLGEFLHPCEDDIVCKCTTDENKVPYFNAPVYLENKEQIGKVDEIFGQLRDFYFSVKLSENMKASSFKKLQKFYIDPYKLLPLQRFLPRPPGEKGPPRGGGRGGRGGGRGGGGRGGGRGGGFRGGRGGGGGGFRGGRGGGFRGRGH
T1 sequence (Q9BUR4 whole entry partner): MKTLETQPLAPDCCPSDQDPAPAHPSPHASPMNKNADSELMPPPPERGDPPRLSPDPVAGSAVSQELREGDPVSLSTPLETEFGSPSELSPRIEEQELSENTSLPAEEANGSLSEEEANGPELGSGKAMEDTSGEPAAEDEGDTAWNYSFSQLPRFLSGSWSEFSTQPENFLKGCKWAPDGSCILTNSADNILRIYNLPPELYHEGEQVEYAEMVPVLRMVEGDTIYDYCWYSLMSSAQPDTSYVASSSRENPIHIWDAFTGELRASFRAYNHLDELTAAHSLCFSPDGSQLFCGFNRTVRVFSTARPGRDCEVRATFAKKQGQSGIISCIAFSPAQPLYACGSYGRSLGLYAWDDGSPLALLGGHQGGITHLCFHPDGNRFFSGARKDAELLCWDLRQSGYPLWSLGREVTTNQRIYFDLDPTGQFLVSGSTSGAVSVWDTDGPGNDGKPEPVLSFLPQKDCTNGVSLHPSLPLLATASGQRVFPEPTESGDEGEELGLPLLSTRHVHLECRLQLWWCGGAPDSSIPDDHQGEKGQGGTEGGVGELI
Experimental: as §2
Samples were selected from engrafted mouse bone marrow or spleen with human CD45+ immunomagnetic beads (Miltenyi). Telomere length was determined by using the Telomere PNA Kit/FITC for Flow Cytometry (Dako, Cat #K5327). Samples were run on the MACSQuant10 and analyzed with FlowJo software. The Relative Telomere Length (RTL) was calculated. The 1301 cell line was utilized as control cells. The DNA index was determined with the (BD Cycletest™ Plus DNA Kit, Cat #340242). […] Telomerase activity was determined by using TRAPeze Kit RT Telomerase Detection Kit (Millipore, Catalog No. S7710). […]
FIG. 5D. Telomerase activity in BC CML engrafted human CD45^+ cells, as measured by TRAP assay, in vehicle (red), mismatch control (blue) and imetelstat (green) treated BC CML mice.

ABL1 = ABL1 expression in human CD45+ cells from treated BC CML mice; format: in vivo; conditions: p=0.02
Text: FIG. 5F. Boxplot depicting Log 2 (cpm) expression of ABL1 by RNA-seq analysis of human CD45^+ cells isolated from vehicle (red), mismatch control (blue) and imetelstat (green) treated BC CML mouse cells (Student's t-test: vehicle: p=0.037, imetelstat: p=0.02).

beta-catenin [2] = assay: FACS analysis of beta-catenin in normal HSC engrafted mouse model; format: in vivo; conditions: human CD45+ cells and CD34+CD38- stem cells in BM
Experimental: To assess WNT/beta-catenin activation in response to ADAR1 upregulation, a lentiviral TCF/LEF reporter was utilized in human blast crisis CML cells, K562^26. Lentiviral pCDH backbone, ADAR1^WT, shControl, and shADAR1 K562 stable cell lines were transduced with pGreenFire1-TCF/LEF1 reporter (SBI) lentivirus for 72-hours prior to CellTiter-Glo and One-Glo luciferase assays (Promega). A minimum of 50,000 cells were plated in duplicate, lysed according to the manufacturer's protocol, and measured using preloaded protocols on a Promega GloMax Discover Microplate Reader. One-Glo luciferase readouts were normalized to corresponding CellTiter-Glo values. Activated beta-catenin levels in HSC and HPCs were also quantified using a MACS Quant instrument following staining of cells with Viability Near-IR, Lineage PE-Cy5, CD45 BV510, CD34 BV421, CD38 PE-Cy7, GFP, and beta-catenin AF647 antibodies (Becton Dickinson, Inc). […] Mean fluorescence intensity (MF) of active beta-catenin in human CD45+ cells, HSCs (CD45^+CD34^+CD38^− Lin) and HPCs (CD45^+CD34^+CD38^+Lin^−) derived from engrafted bone marrow and spleen was determined with a Miltenyi Biotec MACS Quant flow cytometer.

Substance: imetelstat
- ADAR1 gene expression by qRT-PCR (ADAR1): ineffective
- beta-catenin self-renewal gene expression by qRT-PCR (beta-catenin [1]): ineffective
- telomere length (FlowFish assay) (telomere length): normalization of telomere length
- telomerase activity by TRAP assay (telomerase): reduction
- ABL1 expression (ABL1): significantly reduced
- beta-catenin expression / activity in normal HSC engrafted mice (beta-catenin [2]): no significant decrease; also recorded: does not reduce; also recorded: no significant difference
